From patent US4968686A, “Acyclic pyrrolo [2,3-d]pyrimidine analogs as antiviral agents” (The Regents of The University of Michigan, priority 1989, dated 1990)

Tests used:
[1] = tested on: HCMV; test: HCMV titer, plaque or yield reduction; type: cell-based, human cytomegalovirus (Towne strain) in HFF cells
Text: (§1) The 148 strain of HSV-1 was used in most experiments and was provided by Dr. T. W. Schafer of Schering corporation. The HF strain of HSV-1 was used in selected experiments and was obtained from Dr. G. H. Cohen, University of Pennsylvania. The Towne strain, plaque-purified isolate Po, of HCMV was a gift of Dr. Mark Stinski, University of Iowa.
(§2) HCMV was titered in 24-well cluster dishes which were planted to contain 5×10^4 cells/well, grown as described above. When the cells were 70 to 80% confluent, 0.2 ml of the virus suspension was added per wall and adsorbed as described above. At least three ten-fold dilutions of each preparation were used. Following virus adsorption, the cell sheets were overlayed with 0.5% methocel (4000 CPS) in maintenance medium [MEM(E) with 1.1 gm/liter NaHCO3, 100 units/ml penicillin G, 100 μg/ml streptomycin, and 5% fetal bovine serum]. The cultures were incubated in a humidified atmosphere of 4% CO2 -96% air. Viral foci were visible 5 to 7 days after infection using at least 10-fold magnification. Cells were fixed and stained by a 10-minute exposure to a 0.1% solution of crystal violet in 20% methanol 7 to 12 days after infection. Microscopic foci were enumerated at 20-fold magnification using a Nikon Profile Projector.
(§3) The effect of compounds of the replication of HCMV has been measured using both a plaque (focus) reduction assay and a titer (yield) reduction assay. For the former, HFF cells in 24-well culture dishes were infected with approximately 50 p.f.u. of HCMV per well using the procedures detailed above. Compounds dissolved in growth medium were added in three to six selected concentrations to triplicate wells following virus adsorption. Following incubation at 37° C. for 7 to 10 days, cell sheets were fixed, stained and microscopic foci were enumerated as described above. Drug effects were calculated as a percentage of reduction in number of foci in the presence of each drug concentration compared to the number observed in the absence of drug. DHPG (ganciclovir) was used as a positive control in all experiments.
(§4) For titer reduction analysis, HFF cells were planted as described above in 24-well cluster dishes or in 25 cm^2 flasks. When monolayers were approximately 70% confluent, HCMV was added at a m.o.i. of 0.5 p.f.u. per cell and adsorbed as detailed above. Compounds dissolved in growth medium were added in one or one-half logarithm10 dilutions and incubation continued at 37° C. After 7 to 10 days of incubation, culture dishes or flasks were frozen at […] For titer determination, cells were thawed and then subjected to two more cycles of freezing and thawing at 37° C. Serial, one-logarithm10 dilutions of the final suspension were prepared and inoculated onto new cultures of HFF cells. Titer determination was as detailed above in part (1) (b).
(§5) Dose-response relationships were used to compare drug effects. These were constructed by linearly regressing the percent inhibition of parameters derived in the preceding sections against log drug concentrations. The 50% inhibitory (I50) concentrations were calculated from the regression lines using the methods described by Goldstein. See Goldstein, A., Biostatistics: An Introductory Text, MacMillan, N.Y., 1964, pp. 156-161. Along with the I50 concentration for visual cytotoxicity, the averaged I50 concentrations are compared to I50 concentrations for inhibition for HCMV or HSV-1 replication. Compounds for which the ratio of cytotoxicity I50 concentrations to antiviral I50 concentrations (in vitro therapeutic index) were greater than 10, were considered for further study.

[2] = Visual cytotoxicity scoring in BSC-1 cells; type: cell-based; conditions: african green monkey, Table 1, at time of HSV-1 plaque enumeration, read-out: 50% Inhibitory Concentration Cytotoxicity BSC (visual)
Text: (§6) Cytotoxicity produced in HFF and BSC-1 cells was estimated by visual scoring of cells not affected by virus infection in the HCMV and HSV-1 plaque reduction assays. Cytopathology was estimated at 35- and 60-fold magnification and scored on a zero to four plus basis. Wells were scored on the day of staining.
as §5

[3] = tested on: HSV-1; test: HSV-1 plaque reduction assay, strain S148; type: cell-based, herpes simplex virus type 1 (strain S148) in BSC-1 cells; conditions: for IC50: Human alphaherpesvirus 1, Table 1, strain S148, BSC-1 cells, read-out: 50% Inhibitory Concentration HSV-1 Plaque
Text: as §1
HSV-1 was titered using monolayer cultures of BSC-1 cells. Cells were planted at 3×10^5 cells/well using 6-well cluster dishes. MEM(E) supplemented with 10% fetal bovine serum was employed as medium. After 22-24 hours, cells were 90% confluent and were inoculated in triplicate using at least three ten-fold dilutions with 0.2 ml of the virus suspension to be assayed and incubated in a humidified 4% CO2 […] atmosphere for one hour to permit viral adsorption. Following virus adsorption, the cell sheet was overlayed with 5 ml of MEM(E) with 5% serum plus 0.5% methocel (4000 CPS) and incubated an additional two to three days. Cells were fixed and stained with 0.1% crystal violet in 20% methanol and macroscopic plaques enumerated.
Plaque reduction experiments were HSV-1 were performed using monolayer cultures of BSC-1 cells. The assay was performed exactly as described above except that the 0.2 ml virus suspension contained approximately 100 p.f.u. of HSV-1. Compounds to be tested were dissolved in the overlay medium at concentrations usually ranging from 0.1 to 100 μM in half-or-one logarithm10 dilutions. Titer reduction assays were performed by planting KB cells in 25 cm^2 plastic tissue culture flasks 10 to 24 hours prior to infection. At the onset of experiments, logarithmically growing replicate monolayer cultures were 60 to 80% confluent and contained 2.5 to 4.5×10^6 cells/flask. Medium was decanted and the cultures were infected with 2 to 10 p.f.u. of HSV-1 per cell. Virus was contained in 1.0 ml of VGM supplemented with 5% fetal bovine serum. After a 1 hour adsorption period at […], the cell sheet was rinsed twice with 2 ml of VGM without serum to remove unadsorbed virus and 5 ml of VGM containing drugs at three to five selected concentrations added in duplicate. Following an 18- to 22-hour incubation at 37° C., infected monolayers were treated with EDTA-trypsin to suspend the cells; aliquots were removed, subjected to three cycles of freezing and thawing, and stored at -76° C. for subsequent virus assay. Virus was titered on BSC-1 cells as described above.
as §5

[4] = tested on: HCMV; test: HCMV plaque (focus) reduction assay; type: cell-based; conditions: Human betaherpesvirus 5; Table 1; HFF cells; read-out: 50% Inhibitory Concentration HCMV Plaque
Text: as §1, §2, §3, §5

[5] = Visual cytotoxicity scoring in HFF cells; type: cell-based; conditions: human, Table 1, at time of HCMV plaque enumeration, read-out: 50% Inhibitory Concentration Cytotoxicity HFF (visual)
Text: as §6, §5

[6] = tested on: HCMV; test: HCMV titer (yield) reduction assay; type: cell-based; conditions: Human betaherpesvirus 5; for IC90: Table 1, I90, HFF cells, read-out: HCMV Yield, 90% inhibitory concentration (I90)
Text: as §1, §2, §4, §5

[7] = Human betaherpesvirus 5, Table 2, read-out: HCMV Titer, Plaque or Yield Reduction, 50% Inhibitory Concentration

SMILES | activity against HCMV (in words) [1] | IC50 [1, 7] [µM] | CC50 [2] [µM] | IC50 [3] [µM] | IC50 [4] [µM] | CC50 [5] [µM] | IC90 [6] [µM] | activity against HSV-1 (in words) [3] | IC50 ([1]; Human betaherpesvirus 5, read-out: HCMV Titer, Plaque or Yield Reduction, 50% Inhibitory Concentration) [µM] | log reduction at 10 µM ([6]; FIG. 2, 10 μM) | log reduction at 100 µM ([6]; FIG. 2, 10-fold higher concentration than UMJD 183 (10 μM))
Nc1nc2c(ncn2COCCO)c(=O)[nH]1 [Acyclovir, reference compound] | only modest activity | 63 | > 100 | 4 | 63 | > 100 | 90 | – | – | – | –
Nc1nc(O)c2ncn(COC(CO)CO)c2n1 [Ganciclovir (DHPG), reference compound] | – | 8.8 | > 100 | 4.5 | 8.7 | > 100 | 1.8 | – | – | – | –
Nc1ncnc2c1c(Cl)cn2COCCO [UMJD 100, 4-Amino-5-chloro-7-(2-hydroxyethoxymethyl)pyrrolo[2,3-d]-pyrimidine] | active | 16 | > 100 | 77 | 22 | > 100 | 46 | less potent activity | – | – | –
Nc1ncnc2c1c(Br)cn2COCCO [UMJD 102, 4-Amino-5-bromo-7-(2-hydroxyethoxymethyl)pyrrolo[2,3-d]-pyrimidine] | active | – | > 100 | 11 | 3.5 | 100 | 13 | less potent activity | 3.9 | – | –
Nc1ncnc2c1c(I)cn2COCCO [UMJD 104, 4-Amino-5-iodo-7-(2-hydroxyethoxymethyl)pyrrolo[2,3-d]-pyrimidine] | active | 24 | > 100 | 250 | 24 | 100 | 14 | less potent activity | – | – | –
Nc1ncnc2c1c(Br)cn2COC(CO)CO [UMJD 183, 4-amino-5-bromo-7-[(1,3-dihydroxy-2-propoxy)methyl]-pyrrolo[2,3-d]pyrimidine] | most active | – | > 100 | 2 | 1.6 | > 100 | 1.9 | – | – | ~5 | –
Nc1ncnc2c1c(Cl)cn2COC(CO)CO [UMJD 186, 4-amino-5-chloro-7-[(1,3-dihydroxy-2-propoxy)-methyl]pyrrolo[2,3-d]pyrimidine] | – | – | > 100 | 16 | 9.8 | > 100 | 8 | – | – | – | 5
OCC(CO)OCn1cc(Br)c2c(NO)ncnc21 [UMJD 299, 4-hydroxylamino-5-bromo-7-[(1,3-dihydroxy-2-propoxy)methyl]pyrrolo[2,3-d]pyrimidine] | active and nearly as potent as the 4-amino analogs | – | – | 2.9 | 1.2 | > 100 | 10 | – | – | – | –
